Target: T1, Ceramide glucosyltransferase (Homo sapiens, UniProt Q16739)
T1 sequence (Q16739 whole entry): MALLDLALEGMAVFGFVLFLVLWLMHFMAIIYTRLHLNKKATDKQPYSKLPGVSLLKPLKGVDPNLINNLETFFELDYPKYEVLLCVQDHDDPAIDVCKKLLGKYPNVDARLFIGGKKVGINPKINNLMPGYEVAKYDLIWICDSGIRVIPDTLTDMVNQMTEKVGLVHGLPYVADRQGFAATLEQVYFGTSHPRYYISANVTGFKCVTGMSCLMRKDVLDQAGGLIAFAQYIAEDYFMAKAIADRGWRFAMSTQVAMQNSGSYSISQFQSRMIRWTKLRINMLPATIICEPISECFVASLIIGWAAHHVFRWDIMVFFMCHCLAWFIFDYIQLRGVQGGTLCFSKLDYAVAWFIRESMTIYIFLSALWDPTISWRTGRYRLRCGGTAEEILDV
Test: UDP-Glo Glucosylceramide Synthase Biochemical Assay
Description: An aliquot of GCS enzyme (1.5 μg crude golgi preparation, total protein) and titrated test compound were aliquoted to each well and incubated for 30 minutes at room temperature. […] An equivalent volume of substrate mixture was then added to each well. Following a 20 h incubation at room temperature to allow for GCS turnover of substrate, an equal volume of UDP detection reagent (Promega) was added to each well and incubated for an additional 75 minutes at room temperature to simultaneously convert the accumulated UDP product into ATP and generate light in a luciferase reaction. The generated light was detected using a luminometer.

## COc1ccc(-n2nc(C(=O)N3CCCN(CCF)CC3)c3c2CCOC3)cc1 [US20250171467, Compound 11]
  EC50: 12 µM
